{"source": "ChEMBL document CHEMBL5357055", "about": "“Protoilludane-Type and Related Nor-Sesquiterpenes from Phellinus hartigii and Their Anti-Hypertrophic Activities in Rat Cardiomyocytes” (J Nat Prod, 2024)", "key": {"[1]": {"assay": "Cytotoxicity against NRCM cells assessed as reduction in cell viability measured after 48 hrs by CCK-8 method", "format": "toxicity, cell-based", "settings": "rat"}, "[2]": {"test_system": "NRCM", "assay": "Anticardiac hypertrophic activity in phenylephrine-induced hypertrophy in Sprague-Dawley rat NRCM cells assessed as reduction in NPPA mRNA expression level at 50 uM preincubated for 12 hrs followed by phenylephrine stimulation and measured after 48 hrs by qRT-PCR analysis", "format": "functional, cell-based", "settings": "time 60.0 hrs"}, "[3]": {"test_system": "NRCM", "assay": "Anticardiac hypertrophic activity in phenylephrine-induced hypertrophy in Sprague-Dawley rat NRCM cells assessed as reduction in NPPB mRNA expression level at 50 uM preincubated for 12 hrs followed by phenylephrine stimulation and measured after 48 hrs by qRT-PCR analysis", "format": "functional, cell-based", "settings": "time 60.0 hrs"}, "[4]": {"test_system": "NRCM", "assay": "Anticardiac hypertrophic activity in phenylephrine-induced hypertrophy in Sprague-Dawley rat NRCM cells assessed as reduction in inhibition of ANP level at 50 uM preincubated for 12 hrs followed by phenylephrine stimulation and measured after 48 hrs by Westernblot analysis", "format": "functional, cell-based", "settings": "time 60.0 hrs"}, "[5]": {"test_system": "NRCM", "assay": "Anticardiac hypertrophic activity in phenylephrine-induced hypertrophy in Sprague-Dawley rat NRCM cells assessed as reduction in inhibition of MYH7 level at 50 uM preincubated for 12 hrs followed by phenylephrine stimulation and measured after 48 hrs by Westernblot analysis", "format": "functional, cell-based", "settings": "time 60.0 hrs"}, "[6]": {"test_system": "NRCM", "assay": "Anticardiac hypertrophic activity in phenylephrine-induced hypertrophy in Sprague-Dawley rat NRCM cells assessed as attenuation of cardiomyocyte hypertrophy preincubated for 12 hrs followed by phenylephrine stimulation and measured after 48 hrs by 488-I Phalloidin/DAPI staining based fluorescence microscopic analysis", "format": "functional, cell-based", "settings": "time 60.0 hrs"}}, "note": "Calls of active or inactive are those of the source. No cut-off for these calls is given here."}
{"smiles": "COC(=O)[C@@H]1C[C@@H]2C[C@@H](C)[C@@H]3OC(=O)C[C@]3(C)[C@H]2C1", "values": [{"measurement": "CC50 at 48 h", "setting": "[1]", "value": "> 50", "unit": "µM"}, {"measurement": "Activity", "setting": "[2]", "value": "Active"}, {"measurement": "Activity", "setting": "[3]", "value": "Active"}, {"measurement": "Activity", "setting": "[4]", "value": "Active"}, {"measurement": "Activity", "setting": "[5]", "value": "Active"}, {"measurement": "Activity", "setting": "[6]", "value": "Active"}]}
{"smiles": "C[C@@]12CC[C@@](C)(C1=O)[C@H]1C[C@H](C(=O)O)C[C@H]1C2", "values": [{"measurement": "CC50 at 48 h", "setting": "[1]", "value": "> 50", "unit": "µM"}, {"measurement": "Activity", "setting": "[2]", "value": "Active"}, {"measurement": "Activity", "setting": "[3]", "value": "Active"}, {"measurement": "Activity", "setting": "[4]", "value": "Active"}, {"measurement": "Activity", "setting": "[5]", "value": "Active"}, {"measurement": "Activity", "setting": "[6]", "value": "Active"}]}
{"smiles": "COC(=O)[C@@H]1C[C@@H]2C[C@@H](C)[C@@H]3C(=O)C[C@]3(C)[C@H]2C1", "values": [{"measurement": "CC50 at 48 h", "setting": "[1]", "value": "> 50", "unit": "µM"}, {"measurement": "Activity", "setting": "[2]", "value": "Active"}, {"measurement": "Activity", "setting": "[3]", "value": "Active"}, {"measurement": "Activity", "setting": "[4]", "value": "Active"}, {"measurement": "Activity", "setting": "[5]", "value": "Active"}, {"measurement": "Activity", "setting": "[6]", "value": "Active"}]}
